Experimental data as given in paper PMC5655428, “Discovery and pharmacological characterization of a new class of prolyl-tRNA synthetase inhibitor for anti-fibrosis therapy” (PLoS ONE, 2017).

Key:
human skin fibroblast = experiment: Transcriptome analysis (AmpliSeq) and gene signature analysis; format: cell-based; conditions: 300 nM, 24 h; >1.2-fold change, FDR < 0.05
Experimental: The Ion AmpliSeq Transcriptome Human Gene Expression Kit (ThermoFisher, Waltham, MA, USA) enables the simultaneous measurement of the expression levels of over 20,000 human genes in a single assay. AmpliSeq human-transcriptome libraries were constructed and sequenced by using the Ion Proton platform, according to the manufacturer’s instructions. Briefly, total RNA was extracted from human skin fibroblast treated with compounds for 24 h using the RNeasy Mini Kit. Reverse transcription was performed on 10 ng of the prepared total RNA samples using the AmpliSeq Whole Transcriptome primers with the included SuperScript® VILO^TM cDNA Synthesis kit (Life Technologies). Amplicons were ligated to adapters, and the resulting libraries were purified using Agencourt AMPure XP reagents (Beckman Coulter, Brea, CA, USA) and diluted to the concentration of 75 pM. Templated libraries were sequenced with the Ion Proton sequencer (ThermoFisher). AmpliSeq sequencing data were analyzed using the Ion Torrent Mapping Alignment Program. Identification of differentially expressed genes (DEGs) and comparative gene signature analysis were done in NextBio (http://nextbio.com). Gene expression data was taken by using our ATP-competitive PRS inhibitor analog (IC50: < 3.0 nM). […]

[1] = mouse, in vivo
Experimental: The experimenters were blinded to the treatments given to the animals and to the biochemical and histological analyses and the data analyses. Eight-week-old C3H/He male mice (weighing 23~28 g, Japan SLC, Inc., Hamamatsu, Japan) were used for all the in vivo experiments. […] These animals were maintained on a 12/12 h light/dark cycle with constant temperature (23 ± 2°C) under specific pathogen-free conditions. Standard chow diet and water were available ad libitum.
After acclimatization for 1 weeks, animals were randomly divided according to body weight and treated for 3 to 5 consecutive days as follows. The ear and dorsal skin of mouse were intradermally injected with 20 μL (100 μL, dorsal skin) PBS or 500 ng TGF-β in PBS under anaesthesia with 3–4% sevoflurane. Injections were continued in this manner daily for 3 days (days 0, 1 and 2) or 5 days (days 0, 1, 2, 3 and 4). Treatment protocol included the daily topical application of T-3833261 or HF cream on the ear (40 μL/ear) 1 h before injections into the ear. A vehicle without compounds was applied to control mice. The topical material contained sorbitan sesquioleate (50 g), lanolin (50 g), liquid paraffin (250 g), propylene glycol (50 g), 90% lactic acid (1.5 g), T-3833261 (0.1, 0.3 and 1 g) or HF (0.1 g), and distilled water as the rest material. Topical application of compound was continued for 7 days. Mice were euthanized by cervical dislocation under sevoflurane anesthesia at 3 or 5 days after last TGF-β injection and the ear surrounding the TGF-β injection site was harvested with 8 μm biopsy punch under anesthesia.

Compound: O=C(CC1NCCCC1O)Cn1cnc2cc(Br)c(Cl)cc2c1=O (stereo not shown) [HF, Halofuginone, reference compound]
- number of genes with altered expression levels compared to vehicle-treated cells (human skin fibroblast): 8229 genes
- Body weight day 0 [1]: 22.5 ± 0.3 g
- Body weight day 7 [1]: 23.7 ± 0.3 g
- body weight of the mice after one week of continuous topical application [1]: did not change
